Assay results reported in the METLIN SMRT retention time set (Domingo-Almenara et al. 2019).

Assay: gradient 5% acetonitrile 3 min, to 50% in 2 min, to 85% in 15 min, held 3 min, 100 µL/min
Settings: column: Zorbax Extend-C18 2.1 x 50 mm; eluents: water / acetonitrile, 0.1% formic acid
In short: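 The mobile phases were water and acetonitrile, each with 0.1% formic acid, pumped at 100 μL/min through a Zorbax Extend-C18 column (2.1 × 50 mm, 1.8 μm). Pure standards were injected as mixtures of ~100 molecules and detected by a quadrupole time-of-flight mass spectrometer in positive and negative ionization mode. Retention time came from computationally picked adduct peaks, each inspected by hand.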

Q: For `Cc1ccccc1-c1noc(Cn2ccn(-c3ccccc3)c(=O)c2=O)n1`, which RP-LC retention time is on record?
A: 834 s

Q: With `O=C(Cn1cccc1-c1nnc(-c2ccccc2)o1)N1CCN(c2ccccc2)CC1` as the compound, how does the RP-LC retention time read?
A: 984 s

Q: For `Cc1c(C(=O)NCc2cccnc2)oc2c1C(=O)CC(C)(C)C2`, which RP-LC retention time is on record?
A: 560 s

Q: With `COc1cc(OC)cc(N2C(=O)C3N=NN(Cc4nc(-c5ccc(Cl)cc5)no4)C3C2=O)c1` (stereo unspecified) as the compound, how does the RP-LC retention time read?
A: 1020 s

Q: Which RP-LC retention time does the source give for `CN1C(=O)[C@H]2CN(Cc3ccc(Cl)c(F)c3)C[C@H]2C1=O` here?
A: 632 s

Q: Which RP-LC retention time does the source give for `Cc1ccsc1C1C2=C(CC(C)(C)CC2=O)OC2=C1C(=O)CC(C)(C)C2` here?
A: 1090 s

Q: With `Fc1cccc(Cn2cc(-c3noc(-c4cccc(F)c4)n3)nn2)c1` as the compound, how does the RP-LC retention time read?
A: 1040 s

Q: For `COCCn1cnc2c(-c3ccccc3)cn(CC(=O)NC3CCCC3)c2c1=O`, which RP-LC retention time is on record?
A: 837 s

Q: For `O=C(Nc1ccc(F)cc1F)N1CCC(N2CCN(Cc3ccccc3)C(=O)C2=O)CC1`, which RP-LC retention time is on record?
A: 681 s

Q: For `COc1ccc(-c2ncc3c(n2)CCN(C(=O)Nc2ccccc2Cl)C3)cc1`, which RP-LC retention time is on record?
A: 948 s

Q: For `O=C(COc1cccc(C(F)(F)F)c1)Nc1cc(N2CCOCC2)ncn1`, which RP-LC retention time is on record?
A: 775 s

Q: Which RP-LC retention time does the source give for `Cc1cc2c(cc1S(=O)(=O)N1CCCC1C(=O)NCc1ccc(Cl)cc1)OCC(=O)N2` (stereo unspecified) here?
A: 806 s

Q: Which RP-LC retention time does the source give for `CN(C)c1cc(-n2cccn2)ncn1` here?
A: 666 s

Q: For `CCC1CN(C(=O)N2CCC(C(=O)NCCCN3CCCC3)CC2)c2ccccc2O1` (stereo unspecified), which RP-LC retention time is on record?
A: 627 s

Q: Which RP-LC retention time does the source give for `CCOC(=O)c1noc2ncnc(N(C)Cc3ccccc3)c12` here?
A: 988 s

Q: For `O=C(C1=CN(c2ccccc2)c2cc(F)ccc2S1(=O)=O)N1CCOCC1`, which RP-LC retention time is on record?
A: 754 s

Q: For `COc1nn(C)cc1C(=O)NCC(=O)NC1CCSC1=O` (stereo unspecified), which RP-LC retention time is on record?
A: 559 s

Q: For `CCOc1ccccc1NC(=O)C1CCN(S(=O)(=O)c2cc(-c3noc(C)n3)sc2C)CC1`, which RP-LC retention time is on record?
A: 1010 s

Q: With `COc1ccc(NC(=O)N2CCCC2C(=O)Nc2ccc(C)c(Cl)c2)cc1` (stereo unspecified) as the compound, how does the RP-LC retention time read?
A: 880 s

Q: With `COc1ccc(NC(=O)N2CCC(N3C[C@H]4C[C@H](C3)[C@H]3CCCC(=O)N3C4)CC2)cc1OC` as the compound, how does the RP-LC retention time read?
A: 611 s

Q: For `O=C(c1cccn1-c1nnc(N2CCCC2)s1)N1CCN(c2ccccn2)CC1`, which RP-LC retention time is on record?
A: 598 s

Q: For `Cn1c(C(=O)N(Cc2ccccc2)Cc2ccccc2)cc2c(=O)n3ccccc3nc21`, which RP-LC retention time is on record?
A: 1040 s

Q: Which RP-LC retention time does the source give for `O=C(/C=C/c1ccccc1)Nc1nc(-c2ccccc2)cs1` here?
A: 1070 s

Q: With `Cc1ccc(C)c(Nc2nc(-c3ccccc3)cs2)c1` as the compound, how does the RP-LC retention time read?
A: 1200 s

Q: Which RP-LC retention time does the source give for `CCCN1C(=O)c2cc(C(=O)NCc3ccc(F)cc3)nn2CC1(C)C(=O)NC1CCCC1` (stereo unspecified) here?
A: 824 s

Q: For `COc1ccc(N2C=C(C#N)S(=O)(=O)c3c(F)cccc32)c(OC)c1`, which RP-LC retention time is on record?
A: 893 s

Q: For `CC1=C(c2ccc(C)c(C)c2)S(=O)(=O)N=C1N1CCC(NC(=O)CCC(C)C)CC1`, which RP-LC retention time is on record?
A: 962 s

Q: For `O=C(NCCCN1CCCC1=O)C1c2ccccc2CC(=O)N1Cc1ccccc1` (stereo unspecified), which RP-LC retention time is on record?
A: 678 s

Q: With `CC(C)c1ccc(S(=O)(=O)N2CC(=O)N(C3CCCC3)C3(CCCCC3)C2)cc1` as the compound, how does the RP-LC retention time read?
A: 1330 s

Q: For `Cn1nc(-c2nc(Cc3ccccc3)no2)c2c1CCN(C(=O)NC(C)(C)C)C2`, which RP-LC retention time is on record?
A: 889 s

Q: With `Cc1cncc(CN2CCC(=C3c4ccc(Cl)cc4CCc4cccnc43)CC2)c1` as the compound, how does the RP-LC retention time read?
A: 659 s

Q: For `CN(C)C[C@@H]1CN(C)C[C@H]1NC(=O)c1ccc(Br)cc1`, which RP-LC retention time is on record?
A: 553 s

Q: With `Cc1cc(=O)n(CC(=O)NC2CCCC2)c(N2CCOCC2)n1` as the compound, how does the RP-LC retention time read?
A: 599 s

Q: For `O=C1CCc2cc(NC(=O)c3ccc(-c4ccccc4)cc3)ccc2N1`, which RP-LC retention time is on record?
A: 760 s

Q: With `Cc1cc2nn(CC(=O)NCc3ccc(F)cc3)c(=O)n2c(-c2ccccc2)n1` as the compound, how does the RP-LC retention time read?
A: 744 s

Q: Which RP-LC retention time does the source give for `O=C(NCc1csc(-c2cccs2)n1)C1CCN(S(=O)(=O)c2cccs2)CC1` here?
A: 830 s
